Experimental data published in patent US20240270762A1, “PENICILLIN-BINDING PROTEIN INHIBITORS” (priority 2021, published 2024).

Key:
P. aeruginosa ATCC 35151 = test: microbe, parasite or virus in culture; type: cell-based; conditions: Pseudomonas aeruginosa, ATCC35151, read-out: Minimum inhibitory concentration, P. aeruginosa ATCC 35151
A. baumannii PBP2 = A. baumannii PBP2 (Acinetobacter baumannii, UniProt D0C8Z9); test: Bocillin-FL competition binding via gel filtration, A. baumannii PBP2
Method in brief: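 Enzyme pre-incubated with increasing inhibitor concentrations, then Bocillin-FL added for 15 min further incubation. Bocillin-FL-bound PBP separated by gel filtration and fluorescence read. EC50 from fitting fraction PBP bound vs inhibitor concentration to a Hill-type equation (ymin, ymax, n).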

P. aeruginosa ATCC 27853 = test: microbe, parasite or virus in culture; type: cell-based; conditions: Pseudomonas aeruginosa, ATCC27853, read-out: Minimum inhibitory concentration, P. aeruginosa ATCC 27853
A. baumannii CDC-0045 = test: microbe, parasite or virus in culture; type: cell-based; conditions: Acinetobacter baumannii, CDC0045, read-out: MIC, A. baumannii CDC-0045
A. baumannii CDC-0083 = test: microbe, parasite or virus in culture; type: cell-based; conditions: Acinetobacter baumannii, CDC0083, read-out: MIC, A. baumannii CDC-0083
[1] = target: T1, PBP1a from Acinetobacter baumannii (ATCC 19606) (Acinetobacter baumannii, UniProt A0ABX6CK30); test: Bocillin-FL fluorescence polarization competition binding, A. baumannii PBP1a; conditions: fluorescence polarization competition binding assay using Bocillin-FL; read-out: A. baumannii PBP1a Potency
T1 sequence (A0ABX6CK30 1-851): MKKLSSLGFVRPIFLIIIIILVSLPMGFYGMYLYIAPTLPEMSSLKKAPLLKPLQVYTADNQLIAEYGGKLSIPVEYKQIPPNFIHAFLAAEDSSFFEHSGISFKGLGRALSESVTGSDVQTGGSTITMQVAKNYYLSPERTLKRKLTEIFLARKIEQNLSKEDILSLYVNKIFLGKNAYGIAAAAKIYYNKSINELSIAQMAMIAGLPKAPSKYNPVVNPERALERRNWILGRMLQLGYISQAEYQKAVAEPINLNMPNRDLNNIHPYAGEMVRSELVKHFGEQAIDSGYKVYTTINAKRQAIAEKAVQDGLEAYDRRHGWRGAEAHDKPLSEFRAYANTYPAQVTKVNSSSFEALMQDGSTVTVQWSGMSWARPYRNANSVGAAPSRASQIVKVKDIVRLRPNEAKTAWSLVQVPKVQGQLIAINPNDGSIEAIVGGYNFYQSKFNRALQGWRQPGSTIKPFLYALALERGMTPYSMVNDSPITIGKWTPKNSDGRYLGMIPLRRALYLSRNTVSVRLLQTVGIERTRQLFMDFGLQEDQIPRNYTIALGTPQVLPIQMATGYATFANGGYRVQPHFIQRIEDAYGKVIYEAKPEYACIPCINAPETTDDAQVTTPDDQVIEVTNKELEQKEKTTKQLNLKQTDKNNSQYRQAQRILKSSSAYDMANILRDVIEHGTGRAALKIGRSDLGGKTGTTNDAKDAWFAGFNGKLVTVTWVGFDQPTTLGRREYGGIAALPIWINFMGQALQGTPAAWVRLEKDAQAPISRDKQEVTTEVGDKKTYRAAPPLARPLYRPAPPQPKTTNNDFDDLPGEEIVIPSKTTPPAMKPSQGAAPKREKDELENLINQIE
Excerpt: To determine the ability of boronic acid-based test PBP inhibitors to bind Penicillin Binding Proteins (PBPs), Bocillin-FL (fluorescently-labeled penicillin V; ThermoFisher Scientific) was used in a fluorescence polarization (FP) competition binding assay to assess inhibitor binding to PBP3 from Escherichia coli (K-12), PBP3 from Pseudomonas aeruginosa (PAO1), PBP1a and PBP3 from Acinetobacter baumannii (ATCC 19606), and PBP2 from Neisseria gonorrhoeae (FA19). PBPs were cloned and purified as described previously (E. coli PBP3, King, D. T, et al., ACS Infectious Diseases 2015, 1, 175-184; P. aeruginosa PBP3, Han et. al., PNAS 2010, 107 (51), 22002-22007; A. baumannii PBPs, Penwell et. al., Antimicrob. Agents Chemother. 2015, 59 (3), 1680-1689; N. gonorrhoeae PBP2, Singh et. al., J. Biol. Chem. 2019, 294 (38), 14020-14032). To establish assay conditions for competition binding, enzyme titration/saturation binding experiments were initially performed. Bocillin-FL was prepared at 0.2 μM in a buffer comprised of 50 mM Hepes (pH 8.0), 300 mM NaCl and 10% (v/v) glycerol for reactions with E. coli, P. aeruginosa and N. gonorrhoeae PBPs, and 25 mM Tris (pH 8.0), 200 mM NaCl, 10% (v/v) glycerol and 0.005% (v/v) Tween 20 for reactions with A. baumannii PBPs. Saturation binding was performed by mixing 40 μl of PBP solutions ranging in concentrations from 0-24 μM with 40 μl of the 0.2 μM Bocillin-FL solution, in individual wells of a black 384-well microplate. FP was measured immediately upon mixing (Excitation, 490 nm; Emission, 520 nm; g-factor, 0.96), using a Cytation3 (BioTek) microplate reader and measured continuously for up to 120 minutes. The FP response stabilized after 15 minutes for P. aeruginosa and A. baumannii PBP3, 30 minutes for E. coli PBP3 and A. baumannii PBP1a, and less than 1 minute for N. gonorrhoeae PBP2. […] The competition binding assay (80 μl final volume) was validated using beta-lactams and PBPs at final concentrations of: 1.5 μM for E. coli PBP3; 0.75 μM for P. aeruginosa PBP3; 1 μM for A. baumannii PBP1a; 0.2 μM for A. baumannii PBP3; and 0.25 μM for N. gonorrhoeae PBP2. Bocillin-FL was at 0.1 μM (0.05 μM with A. baumannii PBP1a) and beta-lactam concentrations ranged from 0-1,000 μM. E. coli PBP3 was incubated with increasing concentrations of ampicillin in a black 384-well microplate (Corning) for 30 minutes. P. aeruginosa PBP3 was incubated for 15 minutes with aztreonam, whereas A. baumannii PBP1a and PBP3 were incubated for 15 minutes with meropenem, and then Bocillin-FL was added followed immediately by the FP measurement for up to 60 minutes. […] The beta-lactam potency was reported as the concentration of beta-lactam required to reduce the amount of PBP bound-Bocillin-FL by 50% (EC50). […] The EC50 of aztreonam was determined to be <0.5 μM for P. aeruginosa PBP3. […] Binding assays for boronic acid PBP inhibitors were performed in an identical fashion for the respective PBPs.

Sequence of A. baumannii PBP2 (D0C8Z9 whole entry): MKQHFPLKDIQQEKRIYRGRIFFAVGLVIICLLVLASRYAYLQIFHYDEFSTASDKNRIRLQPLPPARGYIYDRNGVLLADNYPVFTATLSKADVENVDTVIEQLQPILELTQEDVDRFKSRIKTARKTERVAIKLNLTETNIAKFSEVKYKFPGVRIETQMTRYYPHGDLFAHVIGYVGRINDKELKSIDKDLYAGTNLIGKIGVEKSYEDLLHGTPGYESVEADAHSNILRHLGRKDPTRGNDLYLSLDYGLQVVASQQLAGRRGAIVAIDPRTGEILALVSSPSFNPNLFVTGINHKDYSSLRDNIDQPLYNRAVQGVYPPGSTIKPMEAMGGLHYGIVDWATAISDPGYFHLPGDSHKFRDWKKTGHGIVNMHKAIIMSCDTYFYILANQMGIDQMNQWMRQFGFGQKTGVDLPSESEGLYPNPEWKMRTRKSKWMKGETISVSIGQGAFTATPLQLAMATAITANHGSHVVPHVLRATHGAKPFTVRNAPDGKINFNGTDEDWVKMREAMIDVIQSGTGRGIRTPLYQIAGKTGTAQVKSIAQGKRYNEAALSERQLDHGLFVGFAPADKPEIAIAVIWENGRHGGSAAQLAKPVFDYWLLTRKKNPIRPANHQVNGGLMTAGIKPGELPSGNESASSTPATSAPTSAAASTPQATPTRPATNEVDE

Question: How did the MIC (P. aeruginosa ATCC 35151) turn out when `O=C(O)c1c(F)ccc2c1OB(O)[C@@H](NC(=O)C(NC(=O)N1CCN(Cc3ccc(O)c(O)c3Cl)C(=O)C1=O)c1ccc(P(=O)(O)O)c(F)c1)C2` (stereo partly drawn) [Example 23, (3R)-3-(2-(4-(2-chloro-3,4-dihydroxybenzyl)-2,3-dioxopiperazine-1-carboxamido)-2-(3-fluoro-4-phosphonophenyl)acetamido)-7-fluoro-2-hydroxy-3,4-dihydro-2H-benzo[e][1,2]oxaborinine-8-carboxylic acid] was run?
Answer: < 1 µg/mL

Question: What about the EC50 (A. baumannii PBP2) of the same compound?
Answer: < 10 µM

Question: What about the MIC (P. aeruginosa ATCC 27853) of the same compound?
Answer: < 1 µg/mL

Question: What about the MIC (A. baumannii CDC-0045) of the same compound?
Answer: < 1 µg/mL

Question: And the MIC (A. baumannii CDC-0083)?
Answer: < 1 µg/mL

Question: What about the IC50 [1] of the same compound?
Answer: > 250 µM

Question: What does the source list for `O=C(O)c1c(F)ccc2c1OB(O)[C@@H](NC(=O)C(NC(=O)N1CCN(Cc3cc(F)c(O)c(O)c3Cl)C(=O)C1=O)c1ccc(P(=O)(O)O)cc1)C2` (stereo partly drawn) [Example 45, (3R)-3-(2-(4-(2-chloro-5-fluoro-3,4-dihydroxybenzyl)-2,3-dioxopiperazine-1-carboxamido)-2-(4-phosphonophenyl)acetamido)-7-fluoro-2-hydroxy-3,4-dihydro-2H-benzo[e][1,2]oxaborinine-8-carboxylic acid]?
Answer: MIC (P. aeruginosa ATCC 35151): < 1 µg/mL; EC50 (A. baumannii PBP2): < 10 µM; MIC (P. aeruginosa ATCC 27853): < 1 µg/mL; MIC (A. baumannii CDC-0045): < 1 µg/mL; MIC (A. baumannii CDC-0083): < 1 µg/mL; IC50 [1]: > 250 µM
